#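 Step 1: Grow cells in 96-well plates. Step 2: Expose to compound for 48 hours at 5 concentrations. Step 3: Interpolate endpoints linearly; if unreached, use highest concentration. The concentration for 50% growth inhibition is given as GI50. TGI denotes the concentration required for complete inhibition of growth.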
# Key:
# Experiment in all cases: growth of human tumour cells (NCI), 48 h
# HCT-15 colon = test system: HCT-15 colon
# UACC-62 melanoma = test system: UACC-62 melanoma
# CCRF-CEM leukemia = test system: CCRF-CEM leukemia
# SK-OV-3 ovarian = test system: SK-OV-3 ovarian
# A498 renal = test system: A498 renal
# CAKI-1 renal = test system: CAKI-1 renal
# NCI-H460 lung = test system: NCI-H460 lung
# A549 NSCLC = test system: A549 NSCLC
# MOLT-4 leukemia = test system: MOLT-4 leukemia
# NCI-H23 lung = test system: NCI-H23 lung
# TK-10 renal = test system: TK-10 renal
# OVCAR-3 ovarian = test system: OVCAR-3 ovarian
# UO-31 renal = test system: UO-31 renal
# BT-549 breast = test system: BT-549 breast
# RXF 393 renal = test system: RXF 393 renal
# NCI-H226 lung = test system: NCI-H226 lung
# M14 melanoma = test system: M14 melanoma
# HCT-116 colon = test system: HCT-116 colon
# 786-0 renal = test system: 786-0 renal
# HOP-92 NSCLC = test system: HOP-92 NSCLC
# SF-295 CNS = test system: SF-295 CNS
# HT29 colon = test system: HT29 colon
# MALME-3M melanoma = test system: MALME-3M melanoma
# SR leukemia = test system: SR leukemia
# DU-145 prostate = test system: DU-145 prostate
# UACC-257 melanoma = test system: UACC-257 melanoma
# HCC-2998 colon = test system: HCC-2998 colon
# OVCAR-5 ovarian = test system: OVCAR-5 ovarian
# OVCAR-8 ovarian = test system: OVCAR-8 ovarian
# MDA-MB-231 breast = test system: MDA-MB-231 breast
# SNB-19 CNS = test system: SNB-19 CNS
# K-562 leukemia = test system: K-562 leukemia
# SK-MEL-5 melanoma = test system: SK-MEL-5 melanoma
# OVCAR-4 ovarian = test system: OVCAR-4 ovarian
# SF-539 CNS = test system: SF-539 CNS
# SW-620 colon = test system: SW-620 colon
# NCI-H522 lung = test system: NCI-H522 lung
# SN12C renal = test system: SN12C renal
# HOP-62 NSCLC = test system: HOP-62 NSCLC
# IGROV1 ovarian = test system: IGROV1 ovarian
# SK-MEL-2 melanoma = test system: SK-MEL-2 melanoma
# SNB-75 CNS = test system: SNB-75 CNS
# RPMI-8226 leukemia = test system: RPMI-8226 leukemia
# MCF7 breast = test system: MCF7 breast
# U251 CNS = test system: U251 CNS
# MDA-MB-435 = test system: MDA-MB-435
# COLO 205 colon = test system: COLO 205 colon
# HL-60(TB) leukemia = test system: HL-60(TB) leukemia
# KM12 colon = test system: KM12 colon
# ACHN renal = test system: ACHN renal
# T-47D breast = test system: T-47D breast
# EKVX NSCLC = test system: EKVX NSCLC
# SF-268 CNS = test system: SF-268 CNS
# HS 578T breast = test system: HS 578T breast
# PC-3 prostate = test system: PC-3 prostate
# LOX IMVI melanoma = test system: LOX IMVI melanoma
# SK-MEL-28 melanoma = test system: SK-MEL-28 melanoma
# NCI/ADR-RES ovarian = test system: NCI/ADR-RES ovarian
compound,measurement,setting,value
O=C(CCCCCCc1nc2ccc(Br)cc2[nH]1)NO,GI50,HCT-15 colon,1690 nM
same,TGI,HCT-15 colon,> 86500 nM
same,GI50,UACC-62 melanoma,189 nM
same,TGI,UACC-62 melanoma,1170 nM
same,GI50,CCRF-CEM leukemia,405 nM
same,TGI,CCRF-CEM leukemia,> 100000 nM
same,GI50,SK-OV-3 ovarian,628 nM
same,TGI,SK-OV-3 ovarian,3520 nM
same,GI50,A498 renal,723 nM
same,TGI,A498 renal,2100 nM
same,GI50,CAKI-1 renal,461 nM
same,TGI,CAKI-1 renal,1540 nM
same,GI50,NCI-H460 lung,386 nM
same,TGI,NCI-H460 lung,10600 nM
same,GI50,A549 NSCLC,578 nM
same,TGI,A549 NSCLC,11300 nM
same,GI50,MOLT-4 leukemia,342 nM
same,TGI,MOLT-4 leukemia,> 100000 nM
same,GI50,NCI-H23 lung,507 nM
same,TGI,NCI-H23 lung,4890 nM
same,GI50,TK-10 renal,596 nM
same,TGI,TK-10 renal,5700 nM
same,GI50,OVCAR-3 ovarian,313 nM
same,TGI,OVCAR-3 ovarian,1610 nM
same,GI50,UO-31 renal,433 nM
same,TGI,UO-31 renal,5220 nM
same,GI50,BT-549 breast,1690 nM
same,TGI,BT-549 breast,32300 nM
same,GI50,RXF 393 renal,240 nM
same,TGI,RXF 393 renal,813 nM
same,GI50,NCI-H226 lung,1650 nM
same,TGI,NCI-H226 lung,7370 nM
same,GI50,M14 melanoma,340 nM
same,TGI,M14 melanoma,7510 nM
same,GI50,HCT-116 colon,202 nM
same,TGI,HCT-116 colon,1030 nM
same,GI50,786-0 renal,1030 nM
same,TGI,786-0 renal,10700 nM
same,GI50,HOP-92 NSCLC,241 nM
same,TGI,HOP-92 NSCLC,905 nM
same,GI50,SF-295 CNS,471 nM
same,TGI,SF-295 CNS,2840 nM
same,GI50,HT29 colon,291 nM
same,GI50,MALME-3M melanoma,203 nM
same,TGI,MALME-3M melanoma,813 nM
same,GI50,SR leukemia,148 nM
same,TGI,SR leukemia,> 100000 nM
same,GI50,DU-145 prostate,621 nM
same,TGI,DU-145 prostate,5840 nM
same,GI50,UACC-257 melanoma,354 nM
same,TGI,UACC-257 melanoma,7170 nM
same,GI50,HCC-2998 colon,777 nM
same,TGI,HCC-2998 colon,3080 nM
same,GI50,OVCAR-5 ovarian,568 nM
same,TGI,OVCAR-5 ovarian,22300 nM
same,GI50,OVCAR-8 ovarian,275 nM
same,TGI,OVCAR-8 ovarian,16000 nM
same,GI50,MDA-MB-231 breast,824 nM
same,TGI,MDA-MB-231 breast,25000 nM
same,GI50,SNB-19 CNS,689 nM
same,TGI,SNB-19 CNS,> 30000 nM
same,GI50,K-562 leukemia,357 nM
same,TGI,K-562 leukemia,> 100000 nM
same,GI50,SK-MEL-5 melanoma,328 nM
same,TGI,SK-MEL-5 melanoma,1380 nM
same,GI50,OVCAR-4 ovarian,2430 nM
same,TGI,OVCAR-4 ovarian,> 100000 nM
same,GI50,SF-539 CNS,970 nM
same,TGI,SF-539 CNS,31300 nM
same,GI50,SW-620 colon,266 nM
same,TGI,SW-620 colon,1040 nM
same,GI50,NCI-H522 lung,134 nM
same,TGI,NCI-H522 lung,859 nM
same,GI50,SN12C renal,1300 nM
same,TGI,SN12C renal,> 35500 nM
same,GI50,HOP-62 NSCLC,632 nM
same,TGI,HOP-62 NSCLC,14600 nM
same,GI50,IGROV1 ovarian,523 nM
same,TGI,IGROV1 ovarian,2450 nM
same,GI50,SK-MEL-2 melanoma,279 nM
same,TGI,SK-MEL-2 melanoma,3870 nM
same,GI50,SNB-75 CNS,419 nM
same,TGI,SNB-75 CNS,> 100000 nM
same,GI50,RPMI-8226 leukemia,411 nM
same,TGI,RPMI-8226 leukemia,> 100000 nM
same,GI50,MCF7 breast,425 nM
same,TGI,MCF7 breast,> 100000 nM
same,GI50,U251 CNS,387 nM
same,TGI,U251 CNS,4620 nM
same,GI50,MDA-MB-435,277 nM
same,TGI,MDA-MB-435,1380 nM
same,GI50,COLO 205 colon,975 nM
same,TGI,COLO 205 colon,5070 nM
same,GI50,HL-60(TB) leukemia,461 nM
same,TGI,HL-60(TB) leukemia,> 100000 nM
same,GI50,KM12 colon,377 nM
same,TGI,KM12 colon,4180 nM
same,GI50,ACHN renal,671 nM
same,TGI,ACHN renal,3410 nM
same,GI50,T-47D breast,230 nM
same,TGI,T-47D breast,> 100000 nM
same,GI50,EKVX NSCLC,1550 nM
same,TGI,EKVX NSCLC,97100 nM
same,GI50,SF-268 CNS,670 nM
same,TGI,SF-268 CNS,3300 nM
same,GI50,HS 578T breast,331 nM
same,TGI,HS 578T breast,3210 nM
same,GI50,PC-3 prostate,796 nM
same,TGI,PC-3 prostate,> 100000 nM
same,GI50,LOX IMVI melanoma,396 nM
same,TGI,LOX IMVI melanoma,1550 nM
same,GI50,SK-MEL-28 melanoma,703 nM
same,TGI,SK-MEL-28 melanoma,2750 nM
same,GI50,NCI/ADR-RES ovarian,216 nM
same,TGI,NCI/ADR-RES ovarian,1870 nM
